# Laboratory results taken from ChEMBL document CHEMBL3044672, “N9- and N7-(Chloromethyl Phenymethyl)Chloropurine Derivatives from , '-Dichloroxylenes: Synthesis and Anticancer Activity” (2005).
# Legend:
# Format in all cases: functional
# [1] = system: OVCAR-8; assay: Cytotoxicity against Homo sapiens (human) OVCAR8 cells after 48 hr by sulforhodamine B assay; details: OVCAR-8, 48 h
# [2] = system: OVCAR-5; assay: Cytotoxicity against Homo sapiens (human) OVCAR5 cells after 48 hr by sulforhodamine B assay; details: OVCAR-5, 48 h; for CC50: read-out: LC50 (the source's name)
# [3] = system: UACC-257; assay: Cytotoxicity against Homo sapiens (human) UACC257 cells after 48 hr by sulforhodamine B assay; details: UACC-257, 48 h
# [4] = system: SK-MEL-28; assay: Cytotoxicity against Homo sapiens (human) SK-MEL-28 cells after 48 hr by sulforhodamine B assay; details: SK-MEL-28, 48 h
# [5] = system: M14; assay: Cytotoxicity against Homo sapiens (human) M14 cells after 48 hr by sulforhodamine B assay; details: M14, 48 h
# [6] = system: U-251; assay: Cytotoxicity against Homo sapiens (human) U251 cells after 48 hr by sulforhodamine B assay; details: U-251, 48 h
# [7] = system: SNB-75; assay: Cytotoxicity against Homo sapiens (human) SNB75 cells after 48 hr by sulforhodamine B assay; details: SNB-75, 48 h; for CC50: read-out: LC50 (the source's name)
# [8] = system: SNB-19; assay: Cytotoxicity against Homo sapiens (human) SNB19 cells after 48 hr by sulforhodamine B assay; details: SNB-19, 48 h
# [9] = system: MDA-MB-435; assay: Cytotoxicity against Homo sapiens (human) MDA-MB-435 cells after 48 hr by sulforhodamine B assay; details: MDA-MB-435, 48 h
# [10] = system: BT-549; assay: Cytotoxicity against Homo sapiens (human) BT549 cells after 48 hr by sulforhodamine B assay; details: BT-549, 48 h
# [11] = system: Hs-578T; assay: Cytotoxicity against Homo sapiens (human) Hs 578T cells after 48 hr by sulforhodamine B assay
# [12] = Cytotoxicity against Homo sapiens (human) NCI-ADR-RES cells after 48 hr by sulforhodamine B assay
# [13] = system: MCF7; assay: Cytotoxicity against Homo sapiens (human) MCF7 cells after 48 hr by sulforhodamine B assay; details: MCF7, 48 h
# [14] = system: SN12C; assay: Cytotoxicity against Homo sapiens (human) SN12C cells after 48 hr by sulforhodamine B assay
# [15] = system: TK-10; assay: Cytotoxicity against Homo sapiens (human) TK10 cells after 48 hr by sulforhodamine B assay; details: TK-10, 48 h; for CC50: read-out: LC50 (the source's name)
# [16] = system: CAKI-1; assay: Cytotoxicity against Homo sapiens (human) Caki1 cells after 48 hr by sulforhodamine B assay; details: CAKI-1, 48 h
# [17] = system: SF-268; assay: Cytotoxicity against Homo sapiens (human) SF268 cells after 48 hr by sulforhodamine B assay; details: SF-268, 48 h
# [18] = system: HT-29; assay: Cytotoxicity against Homo sapiens (human) HT-29 cells after 48 hr by sulforhodamine B assay; details: HT-29, 48 h
# [19] = system: COLO 205; assay: Cytotoxicity against Homo sapiens (human) COLO205 cells after 48 hr by sulforhodamine B assay; details: COLO 205, 48 h
# [20] = system: NCI-H522; assay: Cytotoxicity against Homo sapiens (human) NCI-H522 cells after 48 hr by sulforhodamine B assay; details: NCI-H522, 48 h; for CC50: read-out: LC50 (the source's name)
# [21] = system: NCI-H460; assay: Cytotoxicity against Homo sapiens (human) NCI-H460 cells after 48 hr by sulforhodamine B assay; details: NCI-H460, 48 h; for CC50: read-out: LC50 (the source's name)
# [22] = system: NCI-H23; assay: Cytotoxicity against Homo sapiens (human) NCI-H23 cells after 48 hr by sulforhodamine B assay; details: NCI-H23, 48 h; for CC50: read-out: LC50 (the source's name)
# [23] = system: NCI-H226; assay: Cytotoxicity against Homo sapiens (human) NCI-H226 cells after 48 hr by sulforhodamine B assay; details: NCI-H226, 48 h; for CC50: read-out: LC50 (the source's name)
# [24] = system: HOP-92; assay: Cytotoxicity against Homo sapiens (human) HOP92 cells after 48 hr by sulforhodamine B assay; details: HOP-92, 48 h; for CC50: read-out: LC50 (the source's name)
# [25] = system: K562; assay: Cytotoxicity against Homo sapiens (human) K562 cells after 48 hr by sulforhodamine B assay; details: K562, 48 h; for CC50: read-out: LC50 (the source's name)
# [26] = system: MCF7; assay: Cytotoxicity against Homo sapiens (human) MCF7 cells assessed as cell growth at 10^-4 M after 48 hr by Alamar blue assay; details: MCF7, 48 h, read-out: Activity
# [27] = system: NCI-H460; assay: Cytotoxicity against Homo sapiens (human) NCI-H460 cells assessed as cell growth at 10^-4 M after 48 hr by Alamar blue assay; details: NCI-H460, 48 h, read-out: Activity
# [28] = read-out: LC50 (the source's name)
compound,measurement,setting,value
Nc1nc(Cl)c2ncn(Cc3ccc(CCl)cc3)c2n1,LC50 (concentration killing 50% of cells),[1],> 100 µM
same,TGI,[1],33.1 µM
same,TGI,[2],14.8 µM
same,CC50,[2],> 100 µM
same,LC50 (concentration killing 50% of cells),[3],> 100 µM
same,TGI,[3],47.9 µM
same,LC50 (concentration killing 50% of cells),[4],> 100 µM
same,TGI,[4],44.7 µM
same,LC50,[5],> 100 µM
same,TGI,[5],38 µM
same,LC50 (concentration killing 50% of cells),[6],44.7 µM
same,TGI,[6],12 µM
same,TGI,[7],91.2 µM
same,CC50,[7],> 100 µM
same,LC50,[8],46.8 µM
same,TGI,[8],19.9 µM
same,LC50,[9],> 100 µM
same,TGI,[9],42.7 µM
same,LC50 (50% lethal concentration),[10],69.2 µM
same,TGI,[10],24.6 µM
same,LC50,[11],> 100 µM
same,TGI,[11],> 100 µM
same,LC50 (concentration killing 50% of cells),[12],> 100 µM
same,TGI,[12],26.9 µM
same,LC50 (concentration killing 50% of cells),[13],> 100 µM
same,TGI,[13],17 µM
same,LC50 (50% lethal concentration),[14],60.3 µM
same,TGI,[14],26.9 µM
same,TGI,[15],40.7 µM
same,CC50,[15],97.7 µM
same,TGI,[16],9.77 µM
same,CC50,[16]; [28],34.7 µM
same,TGI,[17],8.32 µM
same,CC50,[17]; [28],38.9 µM
same,TGI,[18],27.5 µM
same,CC50,[18]; [28],77.6 µM
same,TGI,[19],13.5 µM
same,CC50,[19]; [28],42.7 µM
same,GI50,[20],10.9 µM
same,TGI,[20],25.7 µM
same,CC50,[20],63.1 µM
same,TGI,[21],9.95 µM
same,CC50,[21],63.1 µM
same,TGI,[22],30.2 µM
same,CC50,[22],77.6 µM
same,TGI,[23],37.1 µM
same,CC50,[23],> 100 µM
same,TGI,[24],> 100 µM
same,CC50,[24],> 100 µM
same,TGI,[25],> 100 µM
same,CC50,[25],> 100 µM
same,growth at 100 µM,[26],0%
same,growth at 100 µM,[27],0%
ClCc1cccc(Cn2cnc3nc(Cl)nc(Cl)c32)c1,GI50,[1],9.33 µM
same,LC50 (concentration killing 50% of cells),[1],45.7 µM
same,TGI,[1],21.4 µM
same,GI50,[2],1.69 µM
same,TGI,[2],3.23 µM
same,CC50,[2],6.3 µM
same,GI50,[3],3.46 µM
same,LC50 (concentration killing 50% of cells),[3],38.9 µM
same,TGI,[3],15.1 µM
same,GI50,[4],0.17 µM
same,LC50 (concentration killing 50% of cells),[4],0.97 µM
same,TGI,[4],0.4 µM
same,GI50,[5],1.38 µM
same,LC50,[5],5.12 µM
same,TGI,[5],2.63 µM
same,GI50,[6],1.38 µM
same,LC50 (concentration killing 50% of cells),[6],5.12 µM
same,TGI,[6],2.69 µM
same,GI50,[7],1.09 µM
same,TGI,[7],2.29 µM
same,CC50,[7],4.78 µM
same,GI50,[8],1.38 µM
same,LC50,[8],5.12 µM
same,TGI,[8],2.69 µM
same,GI50,[9],1.47 µM
same,LC50,[9],5.24 µM
same,TGI,[9],2.81 µM
same,GI50,[10],0.48 µM
same,LC50 (50% lethal concentration),[10],4.16 µM
same,TGI,[10],1.73 µM
same,GI50,[11],1.41 µM
same,TGI,[11],2.81 µM
same,GI50,[12],1.54 µM
same,LC50 (concentration killing 50% of cells),[12],> 100 µM
same,TGI,[12],3.09 µM
same,GI50,[13],1.51 µM
same,LC50 (concentration killing 50% of cells),[13],> 100 µM
same,TGI,[13],4.07 µM
same,GI50,[14],1.44 µM
same,TGI,[14],2.75 µM
same,GI50,[15],16.6 µM
same,TGI,[15],30.2 µM
same,CC50,[15],55 µM
same,GI50,[16],1.86 µM
same,TGI,[16],3.46 µM
same,GI50,[17],2.13 µM
same,TGI,[17],3.8 µM
same,GI50,[18],0.34 µM
same,GI50,[19],0.41 µM
same,TGI,[19],1.65 µM
same,GI50,[20],1.81 µM
same,TGI,[20],3.54 µM
same,CC50,[20],6.91 µM
same,GI50,[21],1.69 µM
same,TGI,[21],3.09 µM
same,CC50,[21],5.49 µM
same,GI50,[22],1.54 µM
same,TGI,[22],30.9 µM
same,CC50,[22],5.37 µM
same,GI50,[23],1.28 µM
same,TGI,[23],3.63 µM
same,CC50,[23],19.9 µM
same,GI50,[24],1.47 µM
same,TGI,[24],2.75 µM
same,CC50,[24],5.24 µM
same,GI50,[25],1.41 µM
same,TGI,[25],2.69 µM
same,CC50,[25],5.24 µM
same,growth at 100 µM,[26],0%
same,growth at 100 µM,[27],0%
